What was measured:
[1] = system: Proteus Mirabilis; experiment: Promoting wave test (bacterial bio-wave growth model); format: cell-based; conditions: final concentration of 0.5% on LB plate, 37° C.
Excerpt: The following experimental examples are used to illustrate the promoting wave function, low toxicity and effectiveness for preventing and treating the sexual disfunction of the compound of the present invention (the compound of formula (I)). • I. Promoting wave test of the compound of formula (I) • 1. Experimental materials and method: • 1.1 Samples: pure compound of formula (I) • 1.2 Experimental materials: […]
Strain: Proteus Mirabilis (which should comply with the following biological reaction characteristics: dynamics (+), urease (+), lactose (−), glucose (+), H2S (−), phenylalanine deaminase (+).
Culture medium: modified LB culture medium (the component of the composition are: trytones of 1%, yeast extract of 0.5%, sodium chloride 1%, glucose of 0.1%, TTC of 0.002% and pH=7.2˜7.4). • 1.3 Experimental method:
Experimental results and evaluation:
The experiment adopts a bio-wave model which is used to research the promoting wave function of the compound of formula (I). […] Toxicological test of the compound of formula (I), including: • 1. acute toxicity test: including tests of administrating medicine by oral, intravenous injection and maximum limit amount for administration; • 2. […]

[2] = system: sexual disfunction; experiment: Clinic tests in male patients with sexual disfunction; format: in vivo, human; conditions: two weeks
Protocol: 32 examples of male patients were picked out, who had been repeatedly treated for sexual disfunction with current treatment method, but these treatments were failed, the patients are classified clinically into heavy, medium and light degree disease, separately administrated with N-acetyl-D-glucosamine in the form of capsule by oral (500 mg/day) and alcoholic solution (50 mg/1000 ml) by oral (10 ml/day), using two weeks as a period of treatment, and before and after the administration, and comparing the condition of the patient's symptom by detecting luteinizing hormone (LH), follicular stimulating hormone (FSH), prolactin (PRL), testosterone (T), estradiol (E2) and local blood flux. […] After treatment, the curative effect was steady and could be maintained for a long time.

[3] = system: sexual disfunction; experiment: Test for volunteers (voluntary patient with disfunction for more than ten years); format: in vivo, human; conditions: one voluntary patient, 12 capsules (500 mg/grain) by oral in three days
[4] = 32 male patients, capsule 500 mg/day or alcoholic solution 10 ml/day by oral

CC(=O)N[C@@H]1[C@@H](O)[C@H](O)[C@@H](CO)O[C@H]1O [N-acetyl-D-glucosamine]
promoting wave function (wave pattern of concentric rings compared with control) [1]: many fine waves on each ring emerged | cure rate [2, 4]: 72% | total effective rate [2, 4]: 90% | patients in whom treatment failed ([2]; of 32 male patients, oral): 2 patients | patients turned from heavy and medium degree into light degree ([2]; of 32 male patients, oral): 7 patient | patients who became normal after treatment ([2]; of 32 male patients, oral): 23 patients | duration of the effect [3]: keep normal over two years | sexual function after treatment [3]: sexual function was recovered to normal
